Data reported in patent US12042478B2, “(R)-2-[(2H-1,3-benzodioxol-5-yl)methyl]pyrrolidine and processes for preparation, compositions and uses thereof” (Pharmala Biotech Inc., priority 2022, dated 2024).
“Also recorded” adds a separate entry of the source.

Experiments:
DAT = DAT (Homo sapiens, UniProt Q01959); test: QSAR model predicted IC50, DAT; details: ratio = 1/DAT IC50:1/SERT IC50, from predicted IC50
Protocol: In silico studies (QSAR and docking) are useful tools to understand drug mechanisms, and they are relatively cheaper and faster than experiments. A QSAR model was created for each monoamine transporter. Additionally, the docking properties of phenethylamines were investigated.
QSAR: DAT, SERT and NET IC50 values were collected from the literature for 73 phenethylamines. Three different software's were used for descriptor calculations, and almost 2000 descriptors were calculated. Highly correlated descriptors were eliminated before multi-linear regression (MLR) analysis. All descriptors were merged with experimental inhibition values in QSARiNS software. The multi-Criteria Decision-Making tool of QSARiNS was used to pick the best model.
The predicted IC^50 (mM) values of the test molecules generated based on the QSAR developed as described above are presented in Table 4.

C57 and BTBR mice [1] = test: Tail cuff blood pressure monitoring (CODA non-invasive system); format: in vivo, mouse; details: for toxicity (blood pressure) relative to racemic MDMA: IP
Protocol: The 8 chamber CODA™ Non-invasive blood pressure system was set up to monitor the blood pressure of C57 and BTBR mice. Mice were habituated to restraint, saline injection (IP), and tail-cuff pressure monitoring for at least three days before drug administration. Across days, groups of habituated mice were injected IP with increasing doses of test drug, in this case (R)-I, (S)-I and (R/S)-I, then returned to the home cage for 30 min. Tail cuff pressure monitoring then determined effects on systolic, diastolic, and mean arterial pressure in restrained C57 and BTBR mice in sessions lasting ˜30 min.
In the tail cuff pressure monitoring, an occlusion tail cuff was inflated to impede the blood flow to the tail. The cuff was deflated slowly, and a second tail cuff, incorporating the VPR sensor, measured the physiological characteristics of the returning blood flow. As the blood returned to the tail, the VPR sensor cuff measured the tail swelling resulting from arterial blood flow pulsations. Systolic blood pressure was automatically measured at the first appearance of tail swelling. Diastolic blood pressure was automatically measured when the increasing rate of swelling ceased in the tail.

C57 and BTBR mice [2] = test: Radiotelemetry of home cage locomotor activity; format: in vivo, mouse; details: for locomotor stimulant effects: IP, C57 and BTBR mice
Protocol: (§1) The radiotelemetry assay was conducted in adult male C57 and BTBR mice (n=6 per group) in a dedicated testing room where ambient light, sound, and human contact were tightly controlled.
(§2) Prior to surgical implantation of radiotelemetry probes, mice received 3 mg/kg meloxicam (IP), and anesthesia was induced with 4% inhaled isoflurane and maintained with 1-3% isoflurane (as needed) throughout the procedure at a flow rate of 1.5 litres/minute. The abdominal area of each animal was treated with depilatory cream, then sanitized with 3 alternating scrubs with iodine and alcohol. A rostral-caudal cut approximately 1.5 cm in length was made with sterile skin scissors, providing access to the intraperitoneal cavity. A cylindrical glass-encapsulated radiotelemetry probe (model ER-4000 E-Mitter, Mini Mitter, Bend, OR, USA) was then inserted. These probes measure 15.5 mm×6.5 mm and weigh approximately 1 gram. Incisions were closed (skin layer and muscle layer separately) using reverse cutting 5-0 Vicryl absorbable sutures for the muscle layer and 5-0 nylon suture material for the skin layer. Surgeries were carried out at least 7 days before initiation of experimental conditions, allowing time for incisions to heal and for animals to recover normal body weights. Following surgery, all implanted mice were individually housed in Plexiglas cages within the telemetry room for the duration of all experiments. Implanted transmitters produce activity- and temperature-modulated signals which are sent to a receiver (model ER-4000 Receiver, Mini Mitter Co., Inc.) underneath each cage. Following use, telemetry probes were removed from carcasses, wiped with alcohol swabs, and stored in the disinfectant solution until re-use.
At least 7 days after surgical implantation of radiotelemetry probes, mice in their individual home cages were placed atop a telemetry energizer/receiver, which powers probes and transmits their data to an interfaced computer. […]

C57 and BTBR mice [3] = test: Radiotelemetry of core temperature; format: in vivo, mouse; details: for core body temperature change: 5.6 mg/kg IP; for effect on core temperature: 10 mg/kg; for core temperature response, comparison of strains: C57 vs BTBR mice
Protocol: as §1, §2
At least 7 days after surgical implantation of radiotelemetry probes, mice in their individual home cages were placed atop a telemetry energizer/receiver, which powers probes and transmits their data to an interfaced computer. Upon initiation of an experimental session, the computer collects two data updates from the probes at 5 min intervals: core temperature (in ° C.) on one channel, and locomotor counts (in arbitrary units, depending on the relative position of the probe atop the receiver) on the other. After at least 60 minutes of baseline data collection, mice were removed from their cages, injected with saline or a given dose of a specific drug, then returned to the home cage 24 hours of data collection.
Food and water were always freely available in the home cage. Mice were injected with ascending doses of a given drug, with at least 48 hours separating doses. Because there are few studies of drug effects in BTBR mice, the first drug dose tested occasionally elicited unexpectedly large locomotor effects in these animals. In these cases, smaller drug doses were tested next, after a washout period of at least one full day.

C57 and BTBR mice [4] = test: Conditioned place preference; format: in vivo, mouse; details: 1.0 mg/kg, x3 pairings, C57 mice
Protocol: The same 2-compartment chambers as described above in the social preference studies for conditioned place preference. For these studies, compartments are differentiated by floor texture (rough black plastic vs steel punch plate) and wall pattern (vertical vs. horizontal stripes.) An initial preference/habituation test was first run where mice were able to freely traverse the apparatus for 30 minutes. The following day, mice were assigned to receive saline in one compartment and drug in the other. Saline pairings occurred in the morning, drug pairings occurred in the afternoon, and were separated by at least 4 hours, during which time mice returned to their home cages. Three such pairings were performed, where mice were injected, returned to the home cage for a 15 min pretreatment period, then confined to the injection-appropriate compartment for 30 minutes. Half the subjects (within strain) received drug pairings on the plastic floor+vertical stripes side, and the other half received drug pairings on the punch plate floor+horizontal stripes side. […] The post-conditioning preference test was identical to the initial preference/habituation session, where mice were freely able to traverse the apparatus for 30 minutes. Time spent in each compartment was recorded, and expressed as a preference score for the drug paired side (calculated as time spent in that compartment during the post-test—time spent there during the pre-test.) All preference and conditioning sessions were conducted under the same low light conditions as in the social preference tests.

Sequence of DAT (Q01959 whole entry, species assumed): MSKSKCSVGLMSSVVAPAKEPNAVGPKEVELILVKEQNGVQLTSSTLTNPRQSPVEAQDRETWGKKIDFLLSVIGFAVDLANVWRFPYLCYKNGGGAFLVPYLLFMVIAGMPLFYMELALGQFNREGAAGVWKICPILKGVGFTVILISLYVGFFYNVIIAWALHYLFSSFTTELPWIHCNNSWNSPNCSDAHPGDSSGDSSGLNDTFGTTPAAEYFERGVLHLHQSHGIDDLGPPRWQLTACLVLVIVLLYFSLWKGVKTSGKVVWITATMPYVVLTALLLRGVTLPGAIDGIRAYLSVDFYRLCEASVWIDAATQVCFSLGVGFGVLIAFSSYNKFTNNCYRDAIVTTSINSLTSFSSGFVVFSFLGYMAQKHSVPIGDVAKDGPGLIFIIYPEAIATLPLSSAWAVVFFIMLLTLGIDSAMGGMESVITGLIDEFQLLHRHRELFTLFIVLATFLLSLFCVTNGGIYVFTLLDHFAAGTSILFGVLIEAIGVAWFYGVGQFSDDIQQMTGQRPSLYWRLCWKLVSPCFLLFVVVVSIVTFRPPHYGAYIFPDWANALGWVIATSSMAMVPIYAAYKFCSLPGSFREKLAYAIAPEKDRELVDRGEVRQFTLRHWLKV

SMILES	DAT/SERT (calculated) (DAT)	cardiovascular effects (systolic, diastolic, mean arterial pressure) (C57 and BTBR mice [1]; 10 mg/kg and 30 mg/kg IP, C57 and BTBR mice)	toxicity (blood pressure) relative to racemic MDMA (C57 and BTBR mice [1])	blood pressure rise relative to racemic MDMA and S-methamphetamine (C57 and BTBR mice [1]; both strains)	locomotor effect (C57 and BTBR mice [2]; 56 mg/kg i.p., BTBR mice, significantly different from saline)	locomotor stimulant effects (C57 and BTBR mice [2]; doses as high as 30 mg/kg)	core body temperature change (C57 and BTBR mice [3]; either mouse strain)	effect on core temperature (C57 and BTBR mice [3]; C57 and BTBR mice)	core temperature response, comparison of strains (C57 and BTBR mice [3]; IP)	rise in core body temperature (C57 and BTBR mice [3]; IP, any of the doses tested, C57 and BTBR mice)	dose at which hypothermic effects are noted (C57 and BTBR mice [3]; IP, both strains) [mg/kg]	hypothermic effects after injection (C57 and BTBR mice [3]; IP, both strains, greater in C57 at 10, 18, 30 and 56 mg/kg)	place conditioning (place preference) (C57 and BTBR mice [4])	systolic and diastolic blood pressure (C57 and BTBR mice [1]; 10 mg/kg i.p.)	locomotor stimulant effects (C57 and BTBR mice [2]; any dose tested)	core body temperature change (C57 and BTBR mice [3]; C57 mice)
c1cc2c(cc1C[C@H]1CCCN1)OCO2 [(R)-I, (R)-2-[(2H-1,3-benzodioxol-5-yl)methyl]pyrrolidine]	0.022	lower impact on cardiovascular effects than (S)-I	significantly less toxic	significantly lower	locomotor effect stronger than C57 mice at the same dose	did not have significant locomotor stimulant effects	did not elicit a rise or drop in core body temperature	hypothermic effect	more acute response in C57 mice	did not result in a rise in core body temperature	≥ 10	dose-dependent hypothermic effects	neither 1.0 mg/kg (R)-I nor 1.0 mg/kg (S)-I elicited significant place preferences; also recorded: negligible effects	–	–	–
c1cc2c(cc1C[C@@H]1CCCN1)OCO2 [(S)-I, (S)-2-[(2H-1,3-benzodioxol-5-yl)methyl]pyrrolidine]	0.043	–	significantly less toxic	–	–	–	–	hypothermic effect	more acute response in C57 mice	–	–	–	neither 1.0 mg/kg (R)-I nor 1.0 mg/kg (S)-I elicited significant place preferences; also recorded: negligible effects	higher systolic and diastolic blood pressure than (R)-I	neither strain exhibited locomotor stimulant effects	significant drop in temperature
